Assay results taken from patent US20230234917A1, “ASPARAGINE DERIVATIVES AND METHODS OF USING SAME” (priority 2020, published 2023).

How the values were obtained:
ClbP [1] = molecular target: T1, ClbP (Escherichia coli, UniProt Q0P7K6); experiment: ClbP whole cell activity (inhibition) assay, fluorogenic substrate; format: cell-based, E. coli
Procedure: Whole Cell Activity Assay
(§1) 1) E. coli ClbP+ were taken from a frozen stock and streaked onto BHI plates. They were grown aerobically at 37° C. overnight in the incubator.
(§2) 1) A single colony was selected from the plate and inoculated into 30 mL LB in a 50 mL conical vial eight times (240 mL total). The bacteria were grown aerobically overnight (16-20 h) at 37° C. on a nutator with rocking.
1) The saturated overnight culture was centrifuged to create a firm pellet (3,200 g, 10 min, 4° C.). In a biosafety cabinet, the supernatant was removed and then the pellet was resuspended in 30 mL sterile PBS.
2) The bacteria were centrifuged again (3,200 g, 10 min, 4° C.). The supernatant was removed, and the pellet was resuspended in sterile PBS buffer (6 mL) in each of the 8 tubes. This fivefold concentrated bacterial solution was the working solution.
3) The bacterial working solution (192 μL) was mixed with inhibitor (6 μL, final concentration was 300, 100, 33.3, 11.1, 3.7, 1.2, 0.4, or 0 μM). Fluorogenic substrate (2 μL, final concentration 5 μM) was immediately added across the plate to initiate the reaction. As a control, each plate contained Compound No. III in this dose response curve. The bacterial concentration was fivefold concentrated compared to the original saturated overnight culture. Carryover from DMSO was 4% (v/v). All compounds were tested in singlicate.
(§3) 4) The plate was loaded into a spectrophotometer preheated to 37° C. The fluorescence was recorded every 2 min for 46 min. The excitation wavelength was 360 nm (20 nm bandwidth), the emission wavelength was 460 nm (20 nm bandwidth), the optics position was bottom, the gain was 65, the light source was a tungsten bulb, and the read speed was normal.
(§4) 5) The linear portion of the fluorescence increase was 10-30 min. The rate of fluorescence increase (A.U./min) for each well in an inhibitor series was normalized to the 0 μM inhibitor condition. The normalized activity as a function of inhibitor concentration was then fit to a three parameter IC50 curve in Graphpad Prism.
(§5) “A” indicates an IC50 value less than 100 μM, “B” indicates an IC50 between 100 and 300 μM, “C” indicates an IC50 above 300 μM.

Full-length WT ClbP = Full-length WT ClbP (Escherichia coli, UniProt Q0P7K6); experiment: ClbP molecular (purified protein) enzymatic inhibition assay, fluorogenic substrate; format: biochemical, E. coli
Procedure: ClbP Molecular (Purified Protein) Assay
1) Full-length WT ClbP was thawed on ice. A diluted enzyme solution (2 nM) was made by mixing 3.57 μL of enzyme with 20 mL of reaction buffer (50 mM Tris pH 8.0, 200 mM NaCl, 0.02% (w/v) n-dodecyl-b-D-maltoside (DDM)).
2) In a 96 well plate, the diluted protein solution (73.5 μL) was mixed with inhibitor (1.5 μL, of varying concentrations, see below) and preincubated for 15 min at room temperature. Then, reaction buffer (75 μL) containing 10 μM fluorogenic substrate was added to initiate the reaction. After addition of substrate, the final concentrations were 1 nM full-length WT ClbP, 5 μM fluorogenic substrate in 50 mM Tris pH 8.0, 200 mM NaCl, 0.02% (w/v) DDM, with either 0, 0.14, 0.41, 1.2, 3.7, 11, 33, or 100 μM inhibitor. For all conditions, the DMSO carryover was 2% (v/v) at the preincubation stage and 1% in the reaction stage. Compound No. III was always present as a control in each plate, and all compounds were tested in singlicate. In previous assays, the Km of the fluorogenic substrate was determined to be approximately 5 μM.
3) Immediately after addition of substrate to enzyme, the plate was transferred into a spectrophotometer held at room temperature. The fluorescence was recorded every 1.5 min for 15 min. The excitation wavelength was 360 nm (20 nm bandwidth), the emission wavelength was 440 nm (20 nm bandwidth), the optics position was bottom, the gain was extended, the light source was a xenon flash lamp, and the read speed was normal.
as §4, with “4)” for “5)”, “is at least from 0-6 min, so this time regime is used.” for “was 10-30 min.”
as §5

ClbP [2] = molecular target: T1, ClbP; experiment: ClbP cell lysate activity (inhibition) assay, fluorogenic substrate; format: biochemical; conditions: ClbP Lysate Inhibition Assay: IC50, E. coli ClbP+ lysozyme-EDTA lysates, 5 μM fluorogenic substrate, inhibitor 0-300 μM, 37° C., singlicate
Procedure: Cell Lysate Activity Assay
as §1, §2
1) The saturated overnight culture was centrifuged to create a firm pellet (3,200 g, 10 min, 4° C.). The supernatant was removed and then the pellet was resuspended in 30 mL sterile PBS.
2) The bacteria were centrifuged again (3,200 g, 10 min, 4° C.). The supernatant was removed, and the pellet was resuspended in sterile PBS buffer (3 mL) in each 8 tubes to make a tenfold concentrated bacterial solution.
3) A lysozyme-EDTA (LE) solution was made in ddH2O (0.05 mg/mL lysozyme, 0.25 M EDTA).
4) For each of the eight tubes, LE solution (3 mL) was mixed with concentrated bacterial solution (3 mL). This mixture was incubated at 37° C. for 30 min to generate the lysates.
5) The lysates (192 μL) were mixed with inhibitor (6 μL, final concentration was 300, 100, 33.3, 11.1, 3.7, 1.2, 0.4, or 0 μM). Fluorogenic substrate (2 μL, final concentration 5 μM) was immediately added across the plate to initiate the reaction. As a control, each plate contained Compound No. III in this dose response curve. The final concentration of bacterial lysates was fivefold concentrated compared to the original saturated overnight culture. Carryover from DMSO was 4% (v/v). All compounds were tested in singlicate.
as §3, with “6)” for “4)”
as §4, with “7)” for “5)”, “0-20” for “10-30”
as §5

Row | SMILES | IC50 (ClbP [1]) | IC50 (Full-length WT ClbP) | IC50 (ClbP [2])
1 | O=C(/C=C/C1CCCCC1)N[C@H](CC(=O)NO)C(=O)NCCc1ccc(O)cc1 [Compound CCXCIV] | < 100 µM | < 100 µM | < 100 µM
2 | O=C(C[C@@H](NC(=O)CCCC1CCCC1)C(=O)NCCc1ccc(O)cc1)NO [Compound CCXCIX] | < 100 µM | < 100 µM | < 100 µM
3 | CN(CCCCCC(=O)N[C@H](CC(N)=O)C(=O)NCCc1ccc(O)cc1)Cc1ccccc1 [Compound CCXCI] | < 100 µM | < 100 µM | < 100 µM
4 | O=C(/C=C/CC1CCCC1)N[C@H](CC(=O)NO)C(=O)NCCc1ccc(O)cc1 [Compound CCXCVIII] | < 100 µM | < 100 µM | < 100 µM
5 | O=C(/C=C/CC1CCCCC1)N[C@H](CC(=O)NO)C(=O)NCCc1ccc(O)cc1 [Compound CCXCVII] | < 100 µM | < 100 µM | < 100 µM
6 | O=C(C[C@@H](NC(=O)CCCC1CCCCC1)C(=O)NCCc1ccc(O)cc1)NO [Compound CCXCVI] | < 100 µM | < 100 µM | < 100 µM
7 | O=C(C[C@@H](NC(=O)CCC1CCCCC1)C(=O)NCCc1ccc(O)cc1)NO [Compound CCXCV] | < 100 µM | < 100 µM | < 100 µM
8 | CCCCCCCC(=O)N[C@@H]1CC(=O)NC1(O)C(=O)NCCCC (stereo partly drawn) [Compound CCXC] | < 100 µM | < 100 µM | < 100 µM
9 | CCCCCCCC(=O)N[C@H](CC(N)=O)C(=O)NCCCc1ccccc1 [Compound CCXIII] | < 100 µM | < 100 µM | < 100 µM
10 | CCCCCCC(C)(C)C(=O)N[C@@H](CNCCc1ccccc1)CC(N)=O [Compound CCXII] | > 300 µM | 100 to 300 µM | > 300 µM
11 | CCCCCCCC(N[C@H](CC(N)=O)C(=O)NCCc1ccccc1)C(F)(F)F (stereo partly drawn) [Compound CCXIV] | > 300 µM | < 100 µM | > 300 µM
12 | CCCCCCCC(=O)N[C@H](CC(N)=O)C(=O)NCCC1CCN(C)CC1 [Compound CCXIX] | < 100 µM | < 100 µM | 100 to 300 µM
13 | CCCCCCCC(=O)N[C@H](CC(N)=O)c1nnc(CCc2ccccc2)o1 [Compound CCXI] | > 300 µM | 100 to 300 µM | > 300 µM
14 | NC(=O)C[C@@H](NC(=O)CCC1CCCCC1)C(=O)NCCc1ccccc1 [Compound CCXLIII] | < 100 µM | < 100 µM | < 100 µM
15 | NC(=O)C[C@@H](NC(=O)CCC1CCCCC1)C(=O)NCCc1ccc(O)cc1 [Compound CCXLII] | < 100 µM | < 100 µM | < 100 µM
16 | CCCCCCCC(=O)N[C@H](CC(N)=O)C(=O)N[C@@H](C)Cc1ccc(O)cc1 [Compound CCXLIV] | < 100 µM | < 100 µM | < 100 µM
17 | CCCCCCCC(=O)N[C@H](CC(N)=O)C(=O)NCCc1ccc(OC)c(OC)c1 [Compound CCXLIX] | < 100 µM | < 100 µM | < 100 µM

Row | SMILES | IC50 (ClbP [1]) | IC50 (Full-length WT ClbP) | IC50 (ClbP [2])
18 | NC(=O)C[C@@H](NC(=O)CCCC1CCCCCC1)C(=O)NCCc1ccc(O)cc1 [Compound CCXLI] | < 100 µM | < 100 µM | < 100 µM
19 | CCCCCCCC(=O)N[C@H](CC(N)=O)C(=O)NCCc1cccc(OC)c1 [Compound CCXLVIII] | 100 to 300 µM | < 100 µM | < 100 µM
20 | CCCCCCCC(=O)N[C@H](CC(=O)NC)C(=O)NCCc1ccc(O)cc1 [Compound CCXLVI] | < 100 µM | < 100 µM | 100 to 300 µM
21 | CCCCCCCC(=O)N[C@H](CC(N)=O)C(=O)N[C@H](C)Cc1ccc(O)cc1 [Compound CCXLV] | < 100 µM | < 100 µM | < 100 µM
22 | NC(=O)C[C@@H](NC(=O)/C=C/CC1CCCCCC1)C(=O)NCCc1ccc(O)cc1 [Compound CCXL] | < 100 µM | < 100 µM | < 100 µM
23 | CCCCCCCC(=O)N[C@H](CC(N)=O)C(=O)NCCC1CCNCC1 [Compound CCXVIII] | < 100 µM | 100 to 300 µM | < 100 µM
24 | CCCCCCCC(=O)N[C@H](CC(=O)NC)C(=O)NCCc1ccccc1 [Compound CCXVI] | < 100 µM | 100 to 300 µM | 100 to 300 µM
25 | CCCCCCCC(=O)N[C@H](CC(N)=O)C(=O)NCCc1cccc(O)c1 [Compound CCXXIII] | < 100 µM | < 100 µM | < 100 µM
26 | NC(=O)C[C@@H](NC(=O)CCCC1CCCCC1)C(=O)NCCc1ccc(O)cc1 [Compound CCXXII] | < 100 µM | < 100 µM | < 100 µM
27 | CCCCCCCC(=O)N[C@H](CC(N)=O)C(=O)NCCc1ccccc1O [Compound CCXXIV] | < 100 µM | < 100 µM | < 100 µM
28 | CCCCCCCCCC(=O)N[C@H](CC(N)=O)C(=O)NCCc1ccc(O)cc1 [Compound CCXXI] | < 100 µM | < 100 µM | < 100 µM
29 | CCCCCCCC(=O)N[C@H](CC(N)=O)C(=O)NCCn1cccn1 [Compound CCXXVIII] | < 100 µM | < 100 µM | < 100 µM
30 | CCCCCCCC(=O)N[C@H](CC(N)=O)C(=O)NCCc1c[nH]cn1 [Compound CCXXVII] | < 100 µM | < 100 µM | < 100 µM
31 | CCCCCCCC(=O)N[C@H](CC(N)=O)C(=O)NCCc1ccc(O)c(O)c1 [Compound CCXXVI] | < 100 µM | < 100 µM | < 100 µM
32 | CCCCCCCC(=O)N[C@H](CC(N)=O)C(=O)NCCc1ccc(O)cc1O [Compound CCXXV] | < 100 µM | < 100 µM | < 100 µM
33 | CCCCCCCC(=O)N[C@H](CC(N)=O)C(=O)NCCc1nnn[nH]1 [Compound CCXXXIII] | < 100 µM | < 100 µM | < 100 µM
34 | CCCCCCCC(=O)N[C@H](CC(N)=O)C(=O)NCCc1cncs1 [Compound CCXXXII] | < 100 µM | < 100 µM | < 100 µM
